Patent US8530427B2, “Methods for modulating resistance to apoptosis using KLK6” (Mayo Foundation for Medical Education and Research, priority 2010, dated 2013)

Legend:
[1] = system: Oli Neu oligodendrocyte cell line; experiment: Oli Neu oligodendrocyte cell death, PI flow cytometry; format: cell-based, murine; conditions: 0.5 μM; 18 hour exposure
Text: KLK6 polypeptides promoted the survival of murine oligodendrocytes in a dose dependent fashion. […] Cell death was detected by PI labeling and quantitatively analyzed by flow cytometry.

[2] = system: U251 human glioblastoma cell line; experiment: U251 glioblastoma cell death / apoptosis by flow cytometry; format: cell-based; conditions: 1 μM
Experimental: The percent of cells labeled with propidium iodide (PI) after 24 hour exposure to staurosporine (1 μM) shown in histogram (FIG. 15A) was quantified by flow cytometry (FIG. 15B) and is taken as a measure of cell death. All samples were treated and analyzed in triplicate.
Levels of live (Annexin V− and Propidium iodide− (PI−)), early apoptotic (Annexin V+ and PI−), or dead (Annexin V+ and PI+) cells were determined by flow cytometry after a 24 hour period of exposure to 1 μM staurosporine (FIG. 16B) or staurosporine in the presence of 10 μg/mL KLK6 (FIG. 16C).
Dead cells were detected by labeling with 7-AAD. […] All expression data were normalized to the constitutively expressed gene GAPDH (*P<0.05, Students t-test).
KLK6 polypeptides promoted the survival of human glioma cells. […] Cell death was measured by flow cytometric detection of propidium iodide labeling.

murine splenocytes [3] = experiment: Murine splenocyte/lymphocyte cell death, PI labeling by flow cytometry; format: cell-based; conditions: resting conditions; 1 or 10 μg/mL at plating; 24 and 72 hours
Text: The effect of KLK6 polypeptides on immune cell survival was examined using whole splenocyte populations derived from C57BL6/J or PAR1 deficient mice or using the Jurkat T-leukemic cell line (clone E6-1, TIB-152 American Type Culture Collection). Eight to 12 week old C57 mice were obtained from Jackson Laboratories. Mice deficient in PAR1^-/- (B6.129S4-[…]^tm1Ajc/J) were also obtained from Jackson and backcrossed to C57BL6/J for 10 generations such that C57 mice served as wild type controls in each experiment. Spleens were homogenized in RPMI-1640, red blood cells lysed with ammonium chloride buffer, and splenocytes cultured in tissue culture treated 96 well plates at a density of 7.5×10^5 cells/mL. All experiments were performed in serum free X-Vivo media (Lonza, Mapleton, Ill.) containing 2 mM Glutamax, 1 mM sodium pyruvate, 50 U/mL penicillin-streptomycin, 10 mM HEPES, 50 μM 2-β-mercaptoethanol, and 10 μM non-essential amino acids (Invitrogen). Jurkat T cells were maintained in log-phase growth in the same defined media. The cells were maintained at 37° C. in 95% air and 5% CO2. […] Cells were analyzed by flow cytometry using a FACSCalibur flow cytometer (BD Biosciences, Mountain View, Calif.). […] FlowJo software (Ashland, Oreg.) was used to quantify different cell populations in flow cytometry experiments. […]

murine splenocytes [4] = experiment: Splenocyte proliferation, CFSE labeling by flow cytometry; format: cell-based

Row | Molecule | cell death induced by staurosporine [1] | cell death induced by staurosporine [2] | cell death / cell survival (murine splenocytes [3]) | percent of divided cells (murine splenocytes [4]; 10 μg/mL, 24 hours post-stimulation) | proliferation (murine splenocytes [4]; lower concentrations, or 72 hours post-exposure)
1 | CN[C@@H]1C[C@H]2O[C@@](C)([C@@H]1OC)n1c3ccccc3c3c4c(c5c6ccccc6n2c5c31)C(=O)NC4 [staurosporine] | shown to promote death of the Oli Neu oligodendrocyte cell line | induced a considerable increase in cell death |  |  | 
2 | KLK1 polypeptides: recombinant kallikrein family member KLK1, produced in an identical fashion to KLK6 |  |  | did not significantly impact cell survival | significant increase in the percent of divided cells | Significant differences in proliferation were not seen
